Ends that are not written are not given here.
Legend:
[1] = system: inflammation-related genes; assay: Expression of inflammation-related genes (RT-qPCR) in HEKa cells; format: cell-based, human; conditions: 0.01 mg/mL peptide, vs untreated basal sample
[2] = system: inflammation-related miRNAs; assay: Expression of inflammation-related miRNAs (RT-qPCR) in HEKa cells; format: cell-based, human; conditions: 0.01 mg/mL peptide, 24 h, vs untreated basal sample
[3] = system: IL-8; assay: IL-8 secretion by HaCaT keratinocytes (ELISA), with or without IFNγ; format: cell-based, human
[4] = system: HDFa73 (HDFa from adult); assay: Telomere length in HDFa cells (qPCR); format: cell-based, human; conditions: 48 hours
[5] = system: Nrf2; assay: Subcellular localization of Nrf2 in HEKa cells (immunofluorescence); format: cell-based, human; conditions: 0.01 or 0.05 mg/mL peptide, 24 hours, vs untreated cells
[6] = system: TLR2; assay: TLR2 levels in human epidermal keratinocytes after IFNγ (ELISA); format: cell-based
[7] = system: catalase; assay: Levels or synthesis of catalase enzyme in HEKa cells (ELISA); format: cell-based, human; conditions: 24 hours
[8] = system: TRF1; assay: TRF1 levels in CHA9.3 cells (immunofluorescence); format: cell-based; conditions: 0.125 mg/mL peptide, 24-hour incubation, vs DMSO control
[9] = system: TRF1; assay: TRF1 foci per cell in HEKa cells (immunofluorescence); format: cell-based, human; conditions: basal condition, 0.005 mg/mL peptide, vs untreated
[10] = system: 53BP1; assay: DNA damage (53BP1 foci) under oxidative stress in HEKa cells; format: cell-based, human; conditions: 100 μM H2O2, 0.01 or 0.05 mg/mL peptide, vs cells treated only with H2O2

Substance: GYYELND-NH2 [SEQ ID NO: 2-NH2]
- HMOX1 gene expression ([1]; 6 h): upregulation
- IRAK3 gene expression ([1]; 6 h): upregulation
- TNFAIP3 gene expression ([1]; 6 h): upregulation
- TOLLP gene expression ([1]; 6 h): upregulation
- CXCL8 gene expression ([1]; 24 h): downregulated
- IL1B gene expression ([1]; 24 h): downregulated
- IL6 gene expression ([1]; 24 h): downregulated
- MMP3 gene expression ([1]; 24 h): downregulated
- NFKB1 gene expression ([1]; 24 h): downregulated
- NQO1 gene expression ([1]; 24 h): upregulated
- TLR2 gene expression ([1]; 24 h): downregulated
- TNF gene expression ([1]; 24 h): downregulated
- miR-21-5p expression [2]: upregulate
- miR-146a-5p expression [2]: upregulate
- secretion of IL-8 under inflammatory conditions ([3]; 48 hours, 0.005, 0.01 or 0.05 mg/mL together with IFNγ at 10 ng/mL, compared to positive control (IFNγ alone)): decrease, in a dose-dependent manner
- secretion of IL-8 under basal conditions ([3]; without IFNγ, all concentrations tested (SEQ ID NO: 2-NH2 0.005, 0.01, 0.05 mg/mL; SEQ ID NO: 3-NH2 0.01, 0.05 mg/mL), vs untreated cells): decreased the secretion of IL-8 in a dose-dependent manner but at a lower degree that under inflammatory conditions
- telomeres longer than untreated HDFa73 ([4]; 0.005 mg/mL peptide): 17%
- telomeres longer than untreated HDFa73 ([4]; 0.01 mg/mL peptide): 30%
- Nrf2 translocation into the nuclei [5]: Nrf2 translocation from the cytoplasm to the nuclei in a concentration dependent manner
- decrease in levels of TLR2 ([6]; HEKa cells after IFNγ, highest peptide concentration (0.05 mg/mL), 24 hours): 19%
- levels of TLR2 ([6]; HEKa cells, 24 hours 10 ng/mL IFNγ, then 0.01 or 0.05 mg/mL peptide for 24 hours): lower the levels of TLR2 after exposure to IFNγ in a dose dependent-manner
- levels of catalase ([7]; HEKa cells, 0.005, 0.01 or 0.05 mg/mL peptide, catalase/total protein vs basal): increase the levels of catalase in a dose-dependent manner
- increase in levels of catalase ([7]; HEKa cells, highest concentration (0.05 mg/mL), vs basal): 47%
- TRF1 intensity [8]: increase in TRF1
- TRF1 foci per cell [9]: increase in TRF1
- 53BP1 foci per cell [10]: decrease in 53BP1 foci
